Where two headings read alike, the source gives them in different places. Marks after values point to notes of the source that are not given here.
Assays:
[1] = system: ADP induced platelet aggregation; test: In vitro anti-platelet aggregation, ADP induced (turbidimetry, PRP); assay type: cell-based, rabbits
Description: (§1) The animals were used for experiments after 1 week.
(§2) The common carotid artery was separated, and a polyethylene tube was inserted into the common carotid artery to collect blood. […] The upper beige suspension was pipetted to obtain the platelet-rich plasma (PRP). […] The PRP was adjusted with the PPP to make the platelet count at 1×10^8/mL.
(§3) 260 μL of platelet-rich plasma (PRP) was added into a turbidimetric tube. Then 10 μL of test compounds with different concentrations, positive control drugs or normal saline were separately added, and the plasma was incubated at 37° C. for 5 min. Then 30 μL of inducers were added in sequence. The final concentration of an inducer ADP is 10 μM, and the final concentration of an inducer AA is 1 mM. […] Inhibition rate of platelet aggregation (IRPA)=(platelet aggregation rate of the control group−platelet aggregation rate of the experimental group)/platelet aggregation rate of the control group×100%.

[2] = system: AA induced platelet aggregation; test: In vitro anti-platelet aggregation, AA induced (turbidimetry, PRP); assay type: cell-based, rabbits
Description: as §1, §2, §3

MCAO rats = test: Cerebral infarction, cerebral edema and nerve function of rats with focal cerebral ischemia (MCAO); assay type: in vivo, SD rats; settings: for inhibition at 10 mg/kg/day: Rattus norvegicus
Description: The total number of the animals was 88.
Sham operation group: equal volume of normal saline (containing 1% DMSO) (iv. 3 days), TTC, cerebral edema and neurological function score (n=8); […]
The middle cerebral arteries of the rats were blocked by a suture-occluded method, and reperfused after 2 h. […] All drugs were formulated into normal saline solutions containing 1% DMSO for administration, and the duration of administration was controlled at approximately 1 min. […] 2 h after the last administration, the neurological defect scores were firstly obtained, and then the rats of each group were sacrificed. The whole brains were taken out and weighed (wet weight), TTC stained, and dried to determine the effects of the compounds on cerebral infarction and cerebral edema.
2 h after the last administration, the neurological defects of the animals were graded and scored by the Longa's method.
After the neurobehavioral examination was completed, four coronal incisions were made on the whole brains of the rats on the optic chiasma and 2 mm anteroposterior positions of the optic chiasma. After the whole brains were cut into five slices, the brain slices were quickly placed in 5 ml of phosphate buffer solution containing 2% TTC, and incubated at 37° C. in the dark. In the incubation process, the brain slices were turned once every 5 min. After 10 min of incubation, the brain slices were taken out and pictures were taken with a digital camera (Olympus C-4000, Japan).
The calculation formula of brain water content is as follows: Water content of brain tissue (%)=(wet weight of brain tissue−dry weight of brain tissue)/wet weight of brain tissue×100%; Cerebral edema rate (%)=water content of brain tissue of each group (%)−water content of brain tissue of sham operation group (%)/water content of brain tissue of sham operation group (%)×100%; Inhibition rate of cerebral edema (%)=(rate of cerebral edema of model group (%)−rate of cerebral edema of administration group (%))/rate of cerebral edema of model group (%)×100%.

[3] = system: arteriovenous bypass thrombosis in rats; test: Effect on arteriovenous bypass thrombosis in rats; assay type: in vivo, SD rats; settings: 10 mg/kg/day tail vein 7 days; for Dry weight of thrombus / Wet weight of thrombus: 2 h after last dose; for inhibition at 10 mg/kg/day: Rattus norvegicus, 168 h
Description: Male SD rats, weighing 250-280 g, purchased from Beijing Vital River Laboratory Animal Technology Co., Ltd., raised in an SPF breeding environment with indoor temperature controlled at 23±2° C., and allowed to freely eat and drink. The total number of the animals is 64.
Model group: injected with the same volume of normal saline (containing 1% DMSO) through the tail vein, and administered continuously for 7 days. The test was started 2 h after the last dose (n=8).
The dose of all drugs was 10 mg/kg/day. The drugs were formulated into normal saline solutions containing 1% DMSO, and injected through the tail vein for 7 consecutive days. The test was started 2 hours after the last dose (n=8).
The rats were intraperitoneally injected with a 3% pentobarbital sodium solution (30 mg/kg). After anesthesia, the rats were immobilized in the supine position, and a median cervical incision was made to separate the right common carotid artery and left external jugular vein. A 6 cm long suture was put in the middle of a polyethylene tube (the suture needs to be weighed before being put in the tube), and the polyethylene tube was filled with heparin saline (50 U/mL). The polyethylene tube was inserted into the separated blood vessels to make the artery and vein form a loop. After 15 min of circulation of the blood flow, the suture was taken out, and the suture with thrombus was collected and weighed immediately. Then, after the suture was dried at room temperature for 24 h, the dry weight was determined. The total weight minus the weight of the suture was the wet weight of the thrombus, and the dry weight minus the weight of the suture was the dry weight of the thrombus.

[4] = read-out: IC50 ADP (10 μM), rabbit PRP, inducer ADP 10 μM, 37° C.
[5] = read-out: IC50 AA (1 mM), rabbit PRP, inducer AA 1 mM, 37° C.
[6] = Oryctolagus cuniculus, Platelet, read-out: IC50 ADP (10 μM), rabbit PRP, inducer ADP 10 μM, 37° C.
[7] = Oryctolagus cuniculus, Platelet, read-out: IC50 AA (1 mM), rabbit PRP, inducer AA 1 mM, 37° C.
[8] = MCAO rats, 10 mg/kg/day iv 3 days (combinations equimolar), first dose 2 h after reperfusion
[9] = MCAO rats, 10 mg/kg/day iv 3 days (combinations equimolar), first dose 2 h after reperfusion, read-out: Inhibition rate of cerebral edema
[10] = MCAO rats, 10 mg/kg/day iv 3 days (combinations equimolar), first dose 2 h after reperfusion, read-out: Inhibition rate of infarct volume
[11] = vs model group, read-out: Inhibition rate (dry weight of thrombus)
[12] = vs model group, read-out: Inhibition rate (wet weight of thrombus)
[13] = iv 2 h after the beginning of reperfusion, 5 mg/kg
[14] = iv 2 h after the beginning of reperfusion, 10 mg/kg
[15] = iv 2 h after the beginning of reperfusion, 20 mg/kg
[16] = iv at the beginning of reperfusion, 5 mg/kg
[17] = iv at the beginning of reperfusion, 10 mg/kg
[18] = iv at the beginning of reperfusion, 20 mg/kg

CCCCC(OC(=O)c1ccccc1)c1ccccc1C(=O)O (racemic) [I4, L-Arginine (R/S)-2-(1-Benzoyloxy-n-Pentyl) Benzoate]
IC50 [1, 4]: 820 ± 50 µM
IC50 [2, 5]: 170 ± 70 µM

N=C(N)NCCC[C@H](N)C(=O)O [L-arginine]
IC50 [1, 6]: 5860 ± 690 µM
IC50 [2, 7]: 5130 ± 650 µM

CCCCC(OC(C)=O)c1ccccc1C(=O)O.N=C(N)NCCC[C@H](N)C(=O)O (racemic) [I1, L-Arginine (R/S)-2-(1-Acetoxy-n-Pentyl) Benzoate]
Cerebral edema (MCAO rats; [8]): 4.97 ± 3.30%
Infarct volume (MCAO rats; [8]): 16.11 ± 2.74%
Inhibition rate of cerebral edema (MCAO rats; [8]): 69.00%
Inhibition rate of infarct volume (MCAO rats; [8]): 61.50%
IC50 [1, 4]: 740 ± 90 µM
Dry weight of thrombus [3]: 7.64 ± 0.40
Wet weight of thrombus [3]: 25.81 ± 2.20**^
Inhibition rate (dry weight of thrombus) ([3]; vs model group): 23.94%
Inhibition rate (wet weight of thrombus) ([3]; vs model group): 28.72%
IC50 [2, 5]: 180 ± 30 µM

CCCC[C@@H](OC(C)=O)c1ccccc1C(=O)O [I1r, L-Arginine (R)-2-(1-Acetoxy-n-Pentyl) Benzoate]
Cerebral edema (MCAO rats; [8]): 10.72 ± 4.19%
Infarct volume (MCAO rats; [8]): 20.14 ± 2.95%
inhibition at 10 mg/kg/day (MCAO rats; [9]): 33.2%
inhibition at 10 mg/kg/day (MCAO rats; [10]): 51.9%
IC50 [1, 4]: 730 ± 70 µM
Dry weight of thrombus [3]: 8.51 ± 0.18
inhibition at 10 mg/kg/day [3, 11]: 15.2%
inhibition at 10 mg/kg/day [3, 12]: 18.4%
IC50 [2, 5]: 180 ± 30 µM

CCCCC(O)c1ccccc1C(=O)O.N=C(N)NCCC[C@H](N)C(=O)O (racemic) [AHPB, L-Arginine (R/S)-2-(1-Hydroxy-n-Pentyl) Benzoate]
Cerebral edema (MCAO rats; [13]): 6.50 ± 1.86%
Infarct volume (MCAO rats; [13]): 37.54 ± 6.94%
Inhibition rate of cerebral edema (MCAO rats; [13]): 31.12%
Inhibition rate of infarct volume (MCAO rats; [13]): 24.34%
Cerebral edema (MCAO rats; [14]): 3.03 ± 2.87%
Infarct volume (MCAO rats; [14]): 25.70 ± 4.75%
Inhibition rate of cerebral edema (MCAO rats; [14]): 67.94%
Inhibition rate of infarct volume (MCAO rats; [14]): 48.19%
Cerebral edema (MCAO rats; [15]): 1.64 ± 3.36%
Infarct volume (MCAO rats; [15]): 23.56 ± 5.29%
Inhibition rate of cerebral edema (MCAO rats; [15]): 82.57%
Inhibition rate of infarct volume (MCAO rats; [15]): 52.51%
Cerebral edema (MCAO rats; [16]): 5.94 ± 2.45%
Infarct volume (MCAO rats; [16]): 29.98 ± 4.99%
Inhibition rate of cerebral edema (MCAO rats; [16]): 38.82%
Inhibition rate of infarct volume (MCAO rats; [16]): 39.06%
Cerebral edema (MCAO rats; [17]): 2.01 ± 2.91%
Infarct volume (MCAO rats; [17]): 19.83 ± 3.95%
Inhibition rate of cerebral edema (MCAO rats; [17]): 79.34%
Inhibition rate of infarct volume (MCAO rats; [17]): 59.69%
Cerebral edema (MCAO rats; [18]): 2.08 ± 4.58%
Infarct volume (MCAO rats; [18]): 17.71 ± 4.65%
Inhibition rate of cerebral edema (MCAO rats; [18]): 78.57%
Inhibition rate of infarct volume (MCAO rats; [18]): 64.00%
Effects of improving cerebral infarction, cerebral edema and neurological function compared with NBP (5 mg/kg) (MCAO rats; low-dose 5 mg/kg iv, at reperfusion or 2 h after): no significant difference
Improving the neurological function compared with NBP (5 mg/kg) (MCAO rats; middle and high doses 10, 20 mg/kg iv): equivalent to NBP (5 mg/kg)
IC50 [1, 4]: 980 ± 210 µM
IC50 [2, 5]: 340 ± 40 µM

CCCCC(OC(C)=O)c1ccccc1C(=O)O (racemic) [I5, L-Lysine (R/S)-2-(1-Acetoxy-n-Pentyl) Benzoate]
IC50 [1, 6]: 1150 ± 80 µM
IC50 [2, 7]: 460 ± 30 µM

CCCCC(OC(C)=O)c1ccccc1C(=O)O.N[C@@H](Cc1c[nH]cn1)C(=O)O (racemic) [I6, L-Histidine (R/S)-2-(1-Acetoxy-n-Pentyl) Benzoate]
IC50 [1, 4]: 770 ± 50 µM
IC50 [2, 5]: 140 ± 10 µM

CC1=NN(c2ccccc2)C(=O)C1 [Edaravone]
Cerebral edema (MCAO rats; [8]): 4.49 ± 4.84%
Infarct volume (MCAO rats; [8]): 14.29 ± 2.58%
inhibition at 10 mg/kg/day (MCAO rats; [9]): 72%
inhibition at 10 mg/kg/day (MCAO rats; [10]): 65.8%
Dry weight of thrombus [3]: 8.23 ± 0.53
Wet weight of thrombus [3]: 24.95 ± 1.20
inhibition at 10 mg/kg/day [3, 11]: 18.1%
inhibition at 10 mg/kg/day [3, 12]: 31.1%

CCCC[C@@H](OC(C)=O)c1ccccc1C(=O)O.N=C(N)NN [I7r, Aminoguanidine (R)-2-(1-Acetoxy-n-Pentyl) Benzoate]
IC50 [1, 4]: 940 ± 50 µM
IC50 [2, 5]: 210 ± 10 µM

CCCC[C@H]1OC(=O)c2ccccc21 [(R)-NBP, (R)-butylphthalide]
IC50 [1, 4]: 1600 ± 150 µM
IC50 [2, 5]: 660 ± 70 µM

CCCCC(OC(=O)CC)c1ccccc1C(=O)O (racemic) [I2, L-Arginine (R/S)-2-(1-Propionyloxy-n-Pentyl) Benzoate]
IC50 [1, 6]: 650 ± 40 µM
IC50 [2, 7]: 190 ± 20 µM

CCCCC(OC(C)=O)c1ccccc1C(=O)O.N=C(N)NN (racemic) [I7, Aminoguanidine (R/S)-2-(1-Acetoxy-n-Pentyl) Benzoate]
IC50 [1, 4]: 1180 ± 60 µM
IC50 [2, 5]: 280 ± 70 µM

CCCC[C@H](OC(C)=O)c1ccccc1C(=O)O.N=C(N)NN [I7s, Aminoguanidine (S)-2-(1-Acetoxy-n-Pentyl) Benzoate]
Cerebral edema (MCAO rats; [8]): 12.34 ± 4.57%
Infarct volume (MCAO rats; [8]): 24.83 ± 2.02%
Inhibition rate of cerebral edema (MCAO rats; [8]): 23.07%
Inhibition rate of infarct volume (MCAO rats; [8]): 40.67%
IC50 [1, 4]: 680 ± 30 µM
IC50 [2, 5]: 120 ± 10 µM

CCCCC(OC(=O)CCC)c1ccccc1C(=O)O (racemic) [I3, L-Arginine (R/S)-2-(1-N-Butyryloxy-n-Pentyl) Benzoate]
IC50 [1, 6]: 1260 ± 70 µM
IC50 [2, 7]: 520 ± 30 µM

CCCCC(OC(C)=O)c1ccccc1C(=O)O (racemic) [(R/S)-APB, (R/S)-2-(1-acetoxy-n-pentyl)benzoic acid]
IC50 [1, 4]: 810 ± 40 µM
IC50 [2, 5]: 470 ± 40 µM

CCCC[C@@H](OC(C)=O)c1ccccc1C(=O)O [(R)-APB, (R)-2-(1-acetoxy-n-pentyl)benzoic acid]
IC50 [1, 6]: 760 ± 70 µM
IC50 [2, 7]: 190 ± 20 µM
